The test addresses T1, FAK enzyme (6 His tagged kinase domain, GenBank NP—722560) (Homo sapiens, UniProt Q05397).
T1 construct: 6 His; made in house; host or cells: insect cell culture infected with baculovirus
The experiment in a line: In vitro enzyme assay (a): sandwich ELISA of FAK tyrosine kinase activity on polyGAT peptide, TMB colorimetric endpoint. The class given is biochemical. As to conditions: in vitro Enzyme Assay test (a); ATP at Km; geometric mean of n > 1 measurements, values marked * tested once. On the procedure: (a) In Vitro Enzyme Assay
A sandwich ELISA assay with a 3,3′,5,5′-tetramethyl benzidine (TMB) colorimetric endpoint was used in order to determine the level of effect of selected compounds on inhibition of FAK protein tyrosine kinase enzyme activity. A synthetic tyrosine containing peptide is coated onto a plastic surface, the level of phosphorylation of these tyrosine residues by the kinase enzyme in the presence of inhibitors is measured using an antibody that binds specifically to phosphorylated tyrosine residues. The amount of antibody bound to substrate is proportional to the level of enzyme catalysis.
Assay Protocol to Identify Inhibitors of Focal Adhesion Kinase (FAK).
A PlateMate Plus™ 384 automated liquid handling unit with a 100 μl disposable tip head was used to make all the non compound reagent additions and a Tecan 384PW plate washer with 384 head was used for all wash steps. Initially Matrix 384 well polystyrene plates (Cat #:4311) were coated with 40 μl/well of a 0.0375 mg/ml solution of synthetic poly peptide (polyGAT, Sigma Cat #:P3899) dissolved in phosphate buffered saline (PBS). Plates were stored overnight at 4° C. Immediately before use the coating solution was aspirated out and each well washed with 2×100 μl of PBS+0.05% Tween 20. To remove surplus phosphate, the wells were then washed with 2×100 μl 50 mM HEPES buffer pH 7.4. Plates were blotted dry before the addition of compounds. Compounds were tested over a 12 point dose range, a Labcyte Echo 550 was used to dispense compounds in nl volumes and back fill with DMSO. The final concentration of compound in the assay was dependent on the starting concentration of compound. For a 10 mM stock compound the final assay dose ranged from 100 μM down to […]. Control wells containing 120 nl DMSO (Max) or 120 nl of 10 mM staurosporine (LC Laboratories, Boston, USA Cat #: S-9300) (Min) were included in each plate. 10 ul of 5% dimethyl sulfoxide v/v (DMSO, Fisher Scientific) was added to each well immediately prior to addition of 10 μl of a co-factor solution containing 80 mM MgCl2 (Sigma Cat #: M1028); 80 mM MnCl2 (Sigma Cat #: M1787); ATP at a concentration calculated to enable the initial reaction velocity to progress at half the maximum velocity (Km for ATP) (Sigma Cat #:A7699). A final addition of 20 μl of enzyme solution containing 100 mM HEPES pH7.4; 0.2 mM sodium vanadate (Sigma Cat #:S6508); 0.2 g/l bovine serum albumin (BSA, Sigma Cat #: A7888); 0.2 mM dithioreitol (Sigma Cat #: 5545); 0.1% Triton X100 (Sigma Cat #:X100); FAK enzyme (20 μl/ml) was made to each well to start the assay running FAK enzyme was generated from an insect culture infected with baculo virus containing the DNA sequence encoding the 6 His tagged kinase domain (GenBank NP_722560).
Plates were left at room temperature for 25 minutes before 10 μl of 500 mM ethylenediaminetetraacetic acid (EDTA) was added to stop the assay and the wells were immediately washed 3×100 μl with PBS+0.05% Tween 20. A 4G10 antibody (Millipore Cat #: 16-105; 16-184) with a directly conjugated horse radish peroxidase (HRP) was used to detect the phosphorylation of the substrate by the FAK. 40 μl of PBS+0.05% Tween 20 containing 0.5% BSA and 0.1 μl/ml antibody was added to each well and left for 1 hour at room temperature to allow the antibody to bind. After this period the wells were again washed with 3×100 μl of PBS+0.05% Tween 20. TMB (Sigma Cat #: T2885) was used as a substrate for the HRP. Phosphate-citrate buffer was made up using capsules provided by Sigma (Cat #: P4922) following the manufacturers guidelines. TMB was dissolved at a concentration of 1 mg/ml in DMSO and let down to a final concentration of 0.05 mg/ml with the phosphor-citrate buffer. 40 μl of the TMB solution was added to each assay well and left for 30 minutes for the blue colour to develop. […]
In general terms: ELISA stands for enzyme-linked immunosorbent assay.
T1 sequence (Q05397 422-680 limits assumed): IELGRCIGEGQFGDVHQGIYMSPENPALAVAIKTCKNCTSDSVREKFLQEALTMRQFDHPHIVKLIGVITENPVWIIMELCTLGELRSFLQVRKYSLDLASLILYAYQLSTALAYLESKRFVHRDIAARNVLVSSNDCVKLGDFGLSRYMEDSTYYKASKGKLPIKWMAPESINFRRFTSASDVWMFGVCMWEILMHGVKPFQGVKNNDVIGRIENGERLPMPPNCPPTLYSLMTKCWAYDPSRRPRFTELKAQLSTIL
Usually IC50 stands for the concentration needed to halve the response being measured. A high value points to weaker potency. Take `CN1CCC(n2cc(Nc3cc(Nc4cccc5c4C(=O)N(C)CC5)c(Cl)cn3)cn2)CC1` [Example 3.29, 8-[[5-chloro-2-[[1-(1-methyl-4-piperidyl)pyrazol-4-yl]amino]-4-pyridyl]amino]-2-methyl-3,4-dihydroisoquinolin-1-one]: half-maximal inhibition (IC50) was put at 118 nM. For the compound `CNC(=O)c1ccccc1Nc1cc(Nc2cn(C)nc2C)ncc1C(F)(F)F` [Example 2.02, 2-[[2-[(1,3-dimethylpyrazol-4-yl)amino]-5-(trifluoromethyl)-4-pyridyl]amino]-N-methyl-benzamide], the IC50 turned out to be 8 nM. The result for `CN1CCc2cccc(Nc3cc(Nc4cnn(C)c4)ncc3Cl)c2C1=O` [Example 3.28, 8-[[5-Chloro-2-[(1-methylpyrazol-4-yl)amino]-4-pyridyl]amino]-2-methyl-3,4-dihydroisoquinolin-1-one] reads 41 nM; that for `CCONC(=O)c1ccccc1Nc1cc(Nc2cc(C)nn2C)ncc1C(F)(F)F` [Example 15.07, 2-[[2-[(2,5-dimethylpyrazol-3-yl)amino]-5-(trifluoromethyl)-4-pyridyl]amino]-N-ethoxy-benzamide], 113 nM. Turning to `Cc1nn(C)cc1Nc1cc(Nc2cccc3c2C(=O)N(C)CCO3)c(Cl)cn1` [Example 3.22, 6-[[5-Chloro-2-[(1,3-dimethylpyrazol-4-yl)amino]-4-pyridyl]amino]-4-methyl-2,3-dihydro-1,4-benzoxazepin-5-one], the IC50 is 25 nM.

In turn, `CNC(=O)c1ccccc1Nc1cc(Nc2cnn(CC(=O)N3CCCN(C)CC3)c2)ncc1Cl` [Example 3.04, 2-[[5-chloro-2-[[1-[2-(4-methyl-1,4-diazepan-1-yl)-2-oxo-ethyl]pyrazol-4-yl]amino]-4-pyridyl]amino]-N-methyl-benzamide] displayed an IC50 of 68 nM. The result for `CNC(=O)c1ccccc1Nc1cc(Nc2cn(C)nc2C(=O)NC)ncc1C(F)(F)F` [Example 12.07, N,1-dimethyl-4-[[4-[[2-(methylcarbamoyl)phenyl]amino]-5-(trifluoromethyl)-2-pyridyl]amino]pyrazole-3-carboxamide] reads 171 nM; that for `CNC(=O)c1ccccc1Nc1cc(Nc2cnn(CC(=O)N3CCOCC3)c2)ncc1Cl` [Example 3.05, 2-[[5-chloro-2-[[1-(2-morpholino-2-oxo-ethyl)prazol-4-yl]amino]-4-pyridyl]amino]-N-methyl-benzamide], 90 nM; that for `CN(C)CCNC(=O)Cn1cc(Nc2cc(Nc3cccc4c3C(=O)N(C)CC4)c(F)cn2)cn1` [Example 4.22, N-(2-dimethylaminoethyl)-2-[4-[[5-fluoro-4-[(2-methyl-1-oxo-3,4-dihydroisoquinolin-8-yl)amino]-2-pyridyl]amino]pyrazol-1-yl]acetamide], 364 nM. With `CN1CCc2cccc(Nc3cc(Nc4cnn(C5CCCNC5)c4)ncc3Cl)c2C1=O` (stereo not drawn) [Example 3.34, 8-[[5-chloro-2-[[1-(3-piperidyl)pyrazol-4-yl]amino]-4-pyridyl]amino]-2-methyl-3,4-dihydroisoquinolin-1-one] the figure was 160 nM; with `CN1CCc2cccc(Nc3cc(Nc4cnn(C5CCCNC5)c4)ncc3F)c2C1=O` (stereo not drawn) [Example 4.18, 8-[[5-fluoro-2-[[1-(3-piperidyl)pyrazol-4-yl]amino]-4-pyridyl]amino]-2-methyl-3,4-dihydroisoquinolin-1-one], 676 nM; with `CN1CCc2cccc(Nc3cc(Nc4cnn(C5CCOCC5)c4)ncc3F)c2C1=O` [Example 4.15, 8-[[5-fluoro-2-[(1-tetrahydropyran-4-ylpyrazol-4-yl)amino]-4-pyridyl]amino]-2-methyl-3,4-dihydroisoquinolin-1-one], 454 nM.

For `CNC(=O)c1ccccc1Nc1cc(Nc2cn(C)nc2COC)ncc1C(F)(F)F` [Example 12.10, 2-[[2-[[3-(methoxymethyl)-1-methyl-pyrazol-4-yl]amino]-5-(trifluoromethyl)-4-pyridyl]amino]-N-methyl-benzamide], 10 nM corresponded to half-maximal inhibition (IC50). In the case of `CNC(=O)c1ccccc1Nc1cc(Nc2cnn(CC(=O)N(C)CCOC)c2)ncc1Cl` [Example 3.06, 2-[[5-chloro-2-[[1-[2-(2-methoxyethyl-methyl-amino)-2-oxo-ethyl]pyrazol-4-yl]amino]-4-pyridyl]amino]-N-methyl-benzamide], the IC50 was found to be 99 nM.

With `CONC(=O)c1c(Nc2cc(Nc3c(C)nn(C)c3C)ncc2C(F)(F)F)cccc1OC` [Example 15.05, N,2-dimethoxy-6-[[5-(trifluoromethyl)-2-[(1,3,5-trimethylpyrazol-4-yl)amino]-4-pyridyl]amino]benzamide], the IC50 is 10 nM. With `CN1CCc2cccc(Nc3cc(Nc4ccn(C5CCNCC5)n4)ncc3F)c2C1=O` [Example 4.19, 8-[[5-fluoro-2-[[1-(4-piperidyl)pyrazol-3-yl]amino]-4-pyridyl]amino]-2-methyl-3,4-dihydroisoquinolin-1-one] the figure was 83 nM. With `CONC(=O)c1ccc(F)cc1Nc1cc(Nc2cc(C)nn2C)ncc1C(F)(F)F` [Example 15.02, 2-[[2-[(2,5-dimethylpyrazol-3-yl)amino]-5-(trifluoromethyl)-4-pyridyl]amino]-4-fluoro-N-methoxy-benzamide] the figure was 3 nM; with `CNC(=O)c1ccccc1Nc1cc(Nc2cc(C)nn2C)ncc1Cl` [Example 3.09, 2-[[5-chloro-2-[(2,5-dimethylpyrazol-3-yl)amino]-4-pyridyl]amino]-N-methyl-benzamide], 29 nM; with `CON(C)C(=O)c1ccccc1Nc1cc(Nc2cn(C)nc2C)ncc1C#N` [Example 1.03, 2-[[5-Cyano-2-[(1,3-dimethylpyrazol-4-yl)amino]-4-pyridyl]amino]-N-methoxy-N-methyl-benzamide], 554 nM.

As for `CON(C)C(=O)c1ccccc1Nc1cc(Nc2cn(C)nc2C)ncc1Cl` [Example 3.21, 2-[[5-chloro-2-[(1,3-dimethylpyrazol-4-yl)amino]-4-pyridyl]amino]-N-methoxy-N-methyl-benzamide], 324 nM corresponded to half-maximal inhibition (IC50). In the case of `CNC(=O)c1ccccc1Nc1cc(Nc2cnn(CC(=O)N3CCC(N(C)C)CC3)c2)ncc1F` [Example 4.06, 2-[[2-[[1-[2-(4-dimethylamino-1-piperidyl)-2-oxo-ethyl]pyrazol-4-yl]amino]-5-fluoro-4-pyridyl]amino]-N-methyl-benzamide], the IC50 was determined as 1050 nM. As for `CNC(=O)c1ccccc1Nc1cc(Nc2cn(C)nc2C)ncc1F` [Example 4.10, 2-[[2-[(1,3-dimethylpyrazol-4-yl)amino]-5-fluoro-4-pyridyl]amino]-N-methyl-benzamide], inhibition was half-maximal at 1770 nM (IC50).

For the compound `CN(C)CCNC(=O)Cn1cc(Nc2cc(Nc3cccc4c3C(=O)N(C)CC4)c(Cl)cn2)cn1` [Example 3.26, 2-[4-[[5-chloro-4-[(2-methyl-1-oxo-3,4-dihydroisoquinolin-8-yl)amino]-2-pyridyl]amino]pyrazol-1-yl]-N-(2-dimethylaminoethyl)acetamide], the IC50 amounted to 38 nM. With `CNC(=O)c1ccc(Cl)cc1Nc1cc(Nc2cn(C)nc2C)ncc1C(F)(F)F` [Example 10.09, 4-chloro-2-[[2-[(1,3-dimethylpyrazol-4-yl)amino]-5-(trifluoromethyl)-4-pyridyl]amino]-N-methyl-benzamide] the figure was 7 nM.
